Source: patent US4968686A, “Acyclic pyrrolo [2,3-d]pyrimidine analogs as antiviral agents” (The Regents of The University of Michigan, priority 1989, dated 1990)
Read-outs that look alike come from different tables or passages of the source.

Experiments:
[1] = system: HCMV; test: HCMV plaque (focus) reduction assay; format: cell-based; conditions: Human betaherpesvirus 5; Table 1; HFF cells; read-out: 50% Inhibitory Concentration HCMV Plaque
Excerpt: (§1) The 148 strain of HSV-1 was used in most experiments and was provided by Dr. T. W. Schafer of Schering corporation. The HF strain of HSV-1 was used in selected experiments and was obtained from Dr. G. H. Cohen, University of Pennsylvania. The Towne strain, plaque-purified isolate Po, of HCMV was a gift of Dr. Mark Stinski, University of Iowa.
HCMV was titered in 24-well cluster dishes which were planted to contain 5×10^4 cells/well, grown as described above. When the cells were 70 to 80% confluent, 0.2 ml of the virus suspension was added per wall and adsorbed as described above. At least three ten-fold dilutions of each preparation were used. Following virus adsorption, the cell sheets were overlayed with 0.5% methocel (4000 CPS) in maintenance medium [MEM(E) with 1.1 gm/liter NaHCO3, 100 units/ml penicillin G, 100 μg/ml streptomycin, and 5% fetal bovine serum]. The cultures were incubated in a humidified atmosphere of 4% CO2 -96% air. Viral foci were visible 5 to 7 days after infection using at least 10-fold magnification. Cells were fixed and stained by a 10-minute exposure to a 0.1% solution of crystal violet in 20% methanol 7 to 12 days after infection. Microscopic foci were enumerated at 20-fold magnification using a Nikon Profile Projector.
The effect of compounds of the replication of HCMV has been measured using both a plaque (focus) reduction assay and a titer (yield) reduction assay. For the former, HFF cells in 24-well culture dishes were infected with approximately 50 p.f.u. of HCMV per well using the procedures detailed above. Compounds dissolved in growth medium were added in three to six selected concentrations to triplicate wells following virus adsorption. Following incubation at 37° C. for 7 to 10 days, cell sheets were fixed, stained and microscopic foci were enumerated as described above. Drug effects were calculated as a percentage of reduction in number of foci in the presence of each drug concentration compared to the number observed in the absence of drug. DHPG (ganciclovir) was used as a positive control in all experiments.
(§2) Dose-response relationships were used to compare drug effects. These were constructed by linearly regressing the percent inhibition of parameters derived in the preceding sections against log drug concentrations. The 50% inhibitory (I50) concentrations were calculated from the regression lines using the methods described by Goldstein. See Goldstein, A., Biostatistics: An Introductory Text, MacMillan, N.Y., 1964, pp. 156-161. Along with the I50 concentration for visual cytotoxicity, the averaged I50 concentrations are compared to I50 concentrations for inhibition for HCMV or HSV-1 replication. Compounds for which the ratio of cytotoxicity I50 concentrations to antiviral I50 concentrations (in vitro therapeutic index) were greater than 10, were considered for further study.

[2] = system: HSV-1; test: HSV-1 plaque reduction assay, strain S148; format: cell-based, herpes simplex virus type 1 (strain S148) in BSC-1 cells; conditions: for IC50: Human alphaherpesvirus 1, Table 1, strain S148, BSC-1 cells, read-out: 50% Inhibitory Concentration HSV-1 Plaque
Excerpt: as §1
(§3) HSV-1 was titered using monolayer cultures of BSC-1 cells. Cells were planted at 3×10^5 cells/well using 6-well cluster dishes. MEM(E) supplemented with 10% fetal bovine serum was employed as medium. After 22-24 hours, cells were 90% confluent and were inoculated in triplicate using at least three ten-fold dilutions with 0.2 ml of the virus suspension to be assayed and incubated in a humidified 4% CO2 […] atmosphere for one hour to permit viral adsorption. Following virus adsorption, the cell sheet was overlayed with 5 ml of MEM(E) with 5% serum plus 0.5% methocel (4000 CPS) and incubated an additional two to three days. Cells were fixed and stained with 0.1% crystal violet in 20% methanol and macroscopic plaques enumerated.
(§4) Plaque reduction experiments were HSV-1 were performed using monolayer cultures of BSC-1 cells. The assay was performed exactly as described above except that the 0.2 ml virus suspension contained approximately 100 p.f.u. of HSV-1. Compounds to be tested were dissolved in the overlay medium at concentrations usually ranging from 0.1 to 100 μM in half-or-one logarithm10 dilutions. Titer reduction assays were performed by planting KB cells in 25 cm^2 plastic tissue culture flasks 10 to 24 hours prior to infection. At the onset of experiments, logarithmically growing replicate monolayer cultures were 60 to 80% confluent and contained 2.5 to 4.5×10^6 cells/flask. Medium was decanted and the cultures were infected with 2 to 10 p.f.u. of HSV-1 per cell. Virus was contained in 1.0 ml of VGM supplemented with 5% fetal bovine serum. After a 1 hour adsorption period at […], the cell sheet was rinsed twice with 2 ml of VGM without serum to remove unadsorbed virus and 5 ml of VGM containing drugs at three to five selected concentrations added in duplicate. Following an 18- to 22-hour incubation at 37° C., infected monolayers were treated with EDTA-trypsin to suspend the cells; aliquots were removed, subjected to three cycles of freezing and thawing, and stored at -76° C. for subsequent virus assay. Virus was titered on BSC-1 cells as described above.
as §2

[3] = system: HSV-1; test: HSV-1 titer (yield) reduction assay; format: cell-based, herpes simplex virus type 1 in KB cells; conditions: read-out: HSV-1 Yield, 90% inhibitory concentration (I90)
Excerpt: as §1, §3, §4
Drug effects were calculated as a percentage of the reduction in virus titers in the presence of each drug concentration compared to the titer obtained in the absence of drug. Acylovir was used as a positive control in all experiments.
as §2

[4] = Human alphaherpesvirus 1, Table 1, I90, strain S148, KB cells

Compound	IC50 [1] [µM]	IC50 [2] [µM]	IC90 ([3]; Human alphaherpesvirus 1, KB) [µM]	IC90 [3, 4] [µM]	activity against HSV-1 (in words) [2]
Nc1nc(O)c2ncn(COC(CO)CO)c2n1 [Ganciclovir (DHPG), reference compound]	8.7	4.5	1.2		
Nc1ncnc2c1c(Cl)cn2COC(CO)CO [UMJD 186, 4-amino-5-chloro-7-[(1,3-dihydroxy-2-propoxy)-methyl]pyrrolo[2,3-d]pyrimidine]	9.8	16		3.5	
OCC(CO)OCn1cc(Br)c2c(NO)ncnc21 [UMJD 299, 4-hydroxylamino-5-bromo-7-[(1,3-dihydroxy-2-propoxy)methyl]pyrrolo[2,3-d]pyrimidine]	1.2	2.9		> 100	
Nc1ncnc2c1c(I)cn2COCCO [UMJD 104, 4-Amino-5-iodo-7-(2-hydroxyethoxymethyl)pyrrolo[2,3-d]-pyrimidine]	24	250		> 100	less potent activity
Nc1ncnc2c1c(Cl)cn2COCCO [UMJD 100, 4-Amino-5-chloro-7-(2-hydroxyethoxymethyl)pyrrolo[2,3-d]-pyrimidine]	22	77		50	less potent activity
Nc1ncnc2c1c(Br)cn2COC(CO)CO [UMJD 183, 4-amino-5-bromo-7-[(1,3-dihydroxy-2-propoxy)methyl]-pyrrolo[2,3-d]pyrimidine]	1.6	2		17	
Nc1ncnc2c1c(Br)cn2COCCO [UMJD 102, 4-Amino-5-bromo-7-(2-hydroxyethoxymethyl)pyrrolo[2,3-d]-pyrimidine]	3.5	11		30	less potent activity
Nc1nc2c(ncn2COCCO)c(=O)[nH]1 [Acyclovir, reference compound]	63	4		7	
